Each structure is given as a SMILES string. A value given as a limit tells only on which side of the number the result lay.

The experiment deals with IL-12. Nature of the experiment: Human in vitro assay: inhibition of IL-12 production in IFNγ/LPS- or IFNγ/SAC-stimulated human PBMC or THP-1 cells (ELISA). The experiment is classed as cell-based. Conditions: read-out: IC50 Range (representative in vitro IC50 data). The source says: The biological activities of a heterocyclic compound can be evaluated by a number of cell-based assays. One of such assays can be conducted using cells from human peripheral blood mononuclear cells (PBMC) or human monocytic cell line (THP-1). The cells are stimulated with a combination of human interferon-γ (IFNγ) and lipopolysaccharide or a combination of IFNγ and Staphylococcus aureus Cowan I in the presence of a test compound. The level of inhibition of IL-12 production can be measured by determining the amount of p70 by using a sandwich ELISA assay with anti-human IL-12 antibodies. IC50 of the test compound can then be determined. Specifically, PBMC or THP-1 cells are incubated with the test compound. Cell viability was assessed using the bioreduction of MTS [3-(4,5-dimethylthiazol-2-yl)-5-(3-carboxymethoxyphenyl)-2-(4-sulfophenyl)-2H-tetrazolium](Promega, Madison, Wis.).
Human In Vitro Assay. Human PBMC were isolated by centrifugation using Ficoll-Paque (Pharmacia Biotech, Uppsala, Sweden) and prepared in RPMI medium supplemented with 10% fetal calf serum (FCS), 100 U/mL penicillin, and 100 μg/mL streptomycin. PBMC were plated in wells of a 96-well plate at a concentration of 5×10^5 cells/well, and primed by adding IFNγ (30 U/mL) for 22 h and stimulated by adding LPS (1 μg/mL), or by adding IFNγ (100 U/mL) and then stimulated by adding SAC (0.01%). A test pyrimidine compound was dissolved in DMSO, and added to wells of the 96-well plate. The final DMSO concentration was adjusted to 0.25% in all cultures, including the compound-free control. Human THP-1 cells were plated in wells, primed by adding IFNγ (100 U/mL) for 22 h and stimulated by adding SAC (0.025%) in the presence of different concentrations of the pyrimidine compound. Cell-free supernatants were taken 18 h later for measurement of cytokines. Cell viability was assessed using the bioreduction of MTS. Cell survival was estimated by determining the ratio of the absorbance in compound-treated groups versus compound-free control.
The supernatant was assayed for the amount of IL-12p40, IL-12p70, or IL-10 by using a sandwich ELISA with anti-human antibodies, i.e., a Human IL-12 p40 ELISA kit from R&D Systems (Berkeley, Calif.), and a Human IL-12 p70 or IL-10 ELISA kit from Endogen (Cambridge, Mass.). Assays were based on the manufacturer's instructions.
The biological activities of pyrimidine compounds were tested on human PBMC or THP-1 cells.
By IC50 is commonly meant the point on the concentration scale where inhibition reaches its midpoint. Regarding `O=C(Nc1cccc(-n2cccn2)c1)c1cc(OCCN2CCOCC2)nc(N2CCOCC2)n1` [Compound 313, 2-Morpholin-4-yl-6-(2-morpholin-4-yl-ethoxy)-pyrimidine-4-carboxylic acid (3-pyrazol-1-yl-phenyl)-amide], the 50% inhibitory concentration (IC50) is below 1 µM.

`CCn1c2ccccc2c2ccc(NC(=O)c3cc(OCCc4ccccn4)nc(N4CCOCC4)n3)cc21` [Compound 33, 2-Morpholin-4-yl-6-(2-pyridin-2-yl-ethoxy)-pyrimidine-4-carboxylic acid (9-ethyl-9H-carbazol-2-yl)-amide]: the IC50 is at least 1 µM.

Consider `Cc1[nH]c2ccc(NC(=O)c3cc(N(C)CC(=O)N4CCOCC4)nc(N4CCOCC4)n3)cc2c1C` [Compound 114, 6-[Methyl-(2-morpholin-4-yl-2-oxo-ethyl)-amino]-2-morpholin-4-yl-pyrimidine-4-carboxylic acid (2,3-dimethyl-1H-indol-5-yl)-amide], for which the IC50 is below 1 µM.

Take `Cc1cccc(NC(=O)c2cc(N3CCOCC3)nc(OCCc3ccccn3)n2)c1` [Compound 62, 6-Morpholin-4-yl-2-(2-pyridin-2-yl-ethoxy)-pyrimidine-4-carboxylic acid m-tolylamide]: the IC50 is at least 1 µM.

With `CC(=O)N1CCN(c2cc(C(=O)Nc3ccc4[nH]c(C)c(C)c4c3)nc(N3CCOCC3)n2)CC1` [Compound 257, 6-(4-acetylpiperazin-1-yl)-N-(2,3-dimethyl-1H-indol-5-yl)-2-morpholinopyrimidine-4-carboxamide], the IC50 was below 1 µM.

In the case of `COCCN(C)c1cc(C(=O)Nc2cc(C)cc(C)n2)nc(N2CCOCC2)n1` [Compound 238, 6-[(2-Methoxy-ethyl)-methyl-amino]-2-morpholin-4-yl-pyrimidine-4-carboxylic acid (4,6-dimethyl-pyridin-2-yl)-amide], the IC50 is at least 1 µM.

As for `Cc1[nH]c2ccc(NC(=O)c3cc(OCCc4ccccn4)nc(N4CCOCC4)n3)cc2c1C` [Compound 2, 2-Morpholin-4-yl-6-(2-pyridin-2-yl-ethoxy)-pyrimidine-4-carboxylic acid (2,3-dimethyl-1H-indol-5-yl)-amide], the IC50 is below 1 µM.

On to `Cc1[nH]c2ccc(NC(=O)c3cc(OCCN4CCOCC4)cc(N4CCOCC4)n3)cc2c1C` [Compound 29, 6-Morpholin-4-yl-4-(2-morpholin-4-yl-ethoxy)-pyridine-2-carboxylic acid (2,3-dimethyl-1H-indol-5-yl)-amide], for which the IC50 is below 1 µM.

In the case of `Cc1[nH]c2ccc(NC(=O)c3cc(N(C)CC(N)=O)nc(N4CCOCC4)n3)cc2c1C` [Compound 117, 6-(Carbamoylmethyl-methyl-amino)-2-morpholin-4-yl-pyrimidine-4-carboxylic acid (2,3-dimethyl-1H-indol-5-yl)-amide], the IC50 was below 1 µM.

Turning to `O=C(Nc1ccc2[nH]ccc2c1)c1cc(OCCc2ccccn2)nc(N2CCOCC2)n1` [Compound 4, 2-Morpholin-4-yl-6-(2-pyridin-2-yl-ethoxy)-pyrimidine-4-carboxylic acid (1H-indol-5-yl)-amide], the IC50 was below 1 µM.

`Cc1[nH]c2ccc(NC(=O)c3cc(NCC(=O)NC4CCCC4)nc(N4CCOCC4)n3)cc2c1C` [Compound 110, 6-(Cyclopentylcarbamoylmethyl-amino)-2-morpholin-4-yl-pyrimidine-4-carboxylic acid (2,3-dimethyl-1H-indol-5-yl)-amide]: the IC50 is below 1 µM.

Consider `Cc1c(C)n(C)c2ccc(NC(=O)c3cc(OCCN4CCOCC4)cc(N4CCOCC4)n3)cc12` [Compound 146, 6-Morpholin-4-yl-4-(2-morpholin-4-yl-ethoxy)-pyridine-2-carboxylic acid (1,2,3-trimethyl-1H-indol-5-yl)-amide], for which the IC50 is below 1 µM.

As for `Cc1c[nH]c2ccc(NC(=O)c3cc(N4CCC(O)CC4)nc(N4CCOCC4)n3)cc12` [Compound 187, 6-(4-Hydroxy-piperidin-1-yl)-2-morpholin-4-yl-pyrimidine-4-carboxylic acid (3-methyl-1H-indol-5-yl)-amide], the half-inhibitory concentration (IC50) was below 1 µM.

Source of the values: patent US20060223996A1, “IL-12 modulatory compounds” (Synta Pharmaceuticals Corp., priority 2004, published 2006).
